# Tests used:
# Format in all cases: cell-based, human
# PC9 cells = assay: Caspase-Glo 3/7 cell death assay, EGFRi+CCT020312; details: Caspase-Glo 3/7, 24 h post-treatment
# Protocol: Cell viability and cell death quantification: For experiments shown in FIGS. 24C, 27D, the indicated cells were seeded at desired densities in replicates in 24-well plates and allowed to attach overnight. The following day cells were treated with the indicated compounds. Media containing the appropriate compounds was replenished every 48 hours. At each media change, cell viabilities were quantified using CellTiter-Glo Luminescent Cell Viability Assay (Promega, G7572). For experiments shown in FIG. 191 and FIG. 29D, PC9 cells were seeded in replicates in 96-well plates and allowed to attach overnight. The following day cells were treated with the indicated compounds or compound combinations at the indicated concentrations. Induction of cell death was quantified 24 h post-treatment using Caspase-Glo 3/7 Assay System (Promega, G8093) and cell survival were measured 72 h post-treatment using CellTiter-Glo Luminescent Cell Viability Assay (Promega, G7572). CCT020312 was obtained from EMD Millipore (324879).
# ATF4, CHOP, GADD34 = assay: qRT-PCR of pro-death genes downstream of ER stress; details: PC9 and NCI-H1975 cells, day three
# Protocol: RNA extraction and qRT-PCR: RNA was extracted using Qiagen RNeasy Plus kit following manufacturer's instruction. RNA was reverse transcribed using High-Capacity cDNA Reverse Transcription Kit (Thermo Fisher Scientific Cat. No. 4368814). qPCRs were performed using TaqMan™ Fast Advanced Master Mix (Thermo Fisher Scientific Cat. No. 4444557) on ABI QuantStudio 7 Flex Real-Time PCR Systems. HPRT1 was used as the internal control to quantify relative gene expression levels. Taqman probes were obtained from Thermo Fisher Scientific (Cat. No. 431182, 4448490). These probes were used in the study: ATF4 Hs00909569_g1, DDIT3/CHOP Hs00358796_g1, PPP1R15A/GADD34 Hs00169585_m1, SLC7A5 Hs01001183_m1, ETV4 Hs00385910_m1, SPRY4 Hs00540086_m1, DUSP6 Hs04329643_s1, HPRT1 Hs02800695_m1.
# NCI-H1975 cells = assay: Clonogenic / CellTiter-Glo assay with allosteric degraders; details: compared to osimertinib
# Protocol: Clonogenic assay: Cells were seeded at desired densities in two to three replicates in 6-well plates and allowed to attach overnight. The following day cells were treated with the indicated compounds. Media containing the appropriate compounds was replenished every 48-72 hours. At the end of the assay, the cells were washed once with PBS, fixed and stained with crystal violet solution (Sigma Aldrich, HT90132) for 20 minutes, washed with water, and allowed to dry before scanning. For experiments shown in FIG. 18E erlotinib concentration were determined to match the cell viability effect to 1 μM GNE-069 in each cell line, so that 1 μM erlotinib was applied to PC-9 and HCC2935, and 100 nM erlotinib was applied to HCC4006 and HCC827. […]
# Cell viability and cell death quantification: For experiments shown in FIGS. 24C, 27D, the indicated cells were seeded at desired densities in replicates in 24-well plates and allowed to attach overnight. […] At each media change, cell viabilities were quantified using CellTiter-Glo Luminescent Cell Viability Assay (Promega, G7572). […] Induction of cell death was quantified 24 h post-treatment using Caspase-Glo 3/7 Assay System (Promega, G8093) and cell survival were measured 72 h post-treatment using CellTiter-Glo Luminescent Cell Viability Assay (Promega, G7572). […]
Structure (SMILES),cell death induction in combination with erlotinib or osimertinib (PC9 cells),"induction of ISR genes in combination with erlotinib or osimertinib (ATF4, CHOP, GADD34)",single agent anti-growth activity (NCI-H1975 cells)
CCN(CC)CCC(=O)N1N=C(c2c(-c3ccccc3)c3cc(Br)ccc3[nH]c2=O)CC1c1ccc(Br)cc1 (stereo not drawn) [CCT020312],enhanced cell death induction,further boosted induction of ISR genes by erlotinib and osimertinib,
O=C(Nc1nccs1)C(c1cc(F)ccc1O)N1Cc2ccccc2C1=O (stereo not drawn) [EAI-045],,,very modest single agent activity

# Reference: patent publication US20230122540A1, “SYSTEMS AND METHODS TO TRACK THE EVOLUTION OF SINGLE CELLS” (Genentech, Inc., priority 2020, published 2023)
